Read-outs that look alike come from different tables or passages of the source. Where only a bound is given, the exact number is not on record here.

A short description of series [1]: Pharmacokinetic studies in rats. The class given is in vivo, rat. The procedure: Pharmacokinetic studies on MDM2 inhibitors were carried out in rat. For comparison, the MDM2 inhibitor, AT-219, was also studied.
Series [2] in a line: In vitro microsomal stability, rat. The class given is in vitro ADME. The following applies: for microsomal stability (in words) / % of compound remaining when incubated in rat liver microsomes with NADPH: rat liver microsomes; for Microsomal stability, % remaining: Rat microsomes.
The next series concerns SJSA-1 xenograft tumors. Description: In vivo efficacy, SJSA-1 xenograft model (tumor volume). On the set-up: species or system C.B-17 SCID mice. The following applies: PO 100 mg/kg; for % Tumor Growth Inhib. T/C Control 750 mm^3 D27: Exp. No. 1, SJSA-1 xenograft; for % Tumor Growth Inhib. T/C Control 750 mm^3 D24: Exp. No. 2, SJSA-1 xenograft.
In series [3] the test system is Isogenic HCT-116 colon cancer cell lines. Description: cells. The class given is cell-based. The conditions noted are these: Homo sapiens.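 Note: cells grown in 96-well plates in McCoy's 5A medium with 10% FBS, exposed to compound for 4 days.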
Procedure: Cells were seeded in 96-well flat bottom cell culture plates at a density of 2−3×10^3 cells/well with compounds and incubated for 4 days.
The subject of series [4] is cancer cell lines with wild-type p53 / mutated or deleted p53 (ATCC). Description: Cell growth assay (WST-8), other cancer cell lines. The class given is cell-based. The conditions noted are these: Homo sapiens.
Series [5] in a line: In vitro microsomal stability, human. The class given is in vitro ADME. The following applies: for microsomal stability (in words) / % of compound remaining when incubated in human liver microsomes with NADPH: human liver microsomes; for Microsomal stability, % remaining: Human microsomes.
The nature of series [6]: Microsomal stability study, negative control incubation. The class given is in vitro ADME.
A short description of series [7]: In vitro microsomal stability, dog. The class given is in vitro ADME. The following applies: for Microsomal stability, % remaining: Dog microsomes; for microsomal stability (in words): dog microsomes.
The target in series [8] is recombinant human His-tagged MDM2 protein (residues 1-118) (Homo sapiens (Human), UniProt Q00987). Description: Fluorescence-polarization MDM2 binding assay.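 Note: fluorescence polarization read after three hours of incubation in potassium phosphate buffer containing bovine gamma globulin and Triton X-100.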 The following applies: Table 19A; FP binding assay; read-out: MDM2 IC50.
Sequence of recombinant human His-tagged MDM2 protein (residues 1-118) (Q00987 1-118): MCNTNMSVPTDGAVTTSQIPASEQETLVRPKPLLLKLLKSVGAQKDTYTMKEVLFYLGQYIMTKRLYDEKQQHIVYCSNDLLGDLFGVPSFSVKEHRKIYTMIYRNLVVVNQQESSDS
The mark [9] stands for this setting: HCT-116, read-out: HCT-116 (p53-/-) IC50.
The mark [10] stands for this setting: HCT-116, read-out: HCT-116 (p53 wild-type) IC50.
Setting [11] is: LNCaP, read-out: LNCAP (p53 wild-type) IC50.
Where [12] appears, read: PC-3, read-out: PC-3 (deleted p53) IC50.
[13] abbreviates: SJSA-1, read-out: SJSA-1 (p53 wild-type) IC50.
The mark [14] stands for this setting: HCT-116, read-out: HCT-116 (p53-/-) IC50, Table 19A, HCT-116 p53-/-, cell growth.
The mark [15] stands for this setting: HCT-116, read-out: HCT-116 (p53 wild-type) IC50, Table 19A, HCT-116 p53 wild-type, cell growth.
The mark [16] stands for this setting: LNCaP, Table 19A, LNCAP cells, p53 wild-type, cell growth, read-out: LNCAP (p53 wild-type) IC50.
[17] abbreviates: PC-3, Table 19A, PC-3 cells, deleted p53, cell growth, read-out: PC-3 (deleted p53) IC50.
The mark [18] stands for this setting: SJSA-1, Table 19A, SJSA-1 cells, p53 wild-type, cell growth, read-out: SJSA-1 (p53 wild-type) IC50.

Procedure for SJSA-1 xenograft tumors: SJSA-1 tumor cells were harvested with Trypsin (0.05%)-EDTA (0.53 mM) (GIBCO™, Invitrogen Corp.), growth medium added and cells placed on ice. A cell sample was mixed 1:1 with Trypan Blue (GIBCO™, Invitrogen Corp.) and counted on a hemocytometer to determine the number of live/dead cells. Cells were washed once with 1×PBS (GIBCO™, Invitrogen Corp.) and resuspended in PBS. For Matrigel injections, after washing in PBS, cells are resuspended in an ice cold mixture of 1:1 PBS and Matrigel (BD Biosciences, Invitrogen Corp.) for a final Matrigel protein concentration of 5 mg/ml. SJSA-1 tumors were inoculated into C.B-17 SCID mice at 5×10^6 cells in 0.1 ml with Matrigel. Cells were injected s.c. into the flank region of each mouse using a 27 gauge needle.
The size of tumors growing in the mice was measured in two dimensions using calipers. Tumor volume (mm^3)=(A×B2)/2 where A and B are the tumor length and width (in mm), respectively. During treatment, tumor volume and body weight was measured three times a week. […] Mice were kept for an additional 60 days for further observation of tumor growth and toxicity.
Mice with tumors within acceptable size range were randomized into treatment groups of 8 mice for experimental compounds and 10 mice for the Control group. Experimental compounds were given orally, once per day for 2-3 weeks.

Regarding `CC(C)(C)C[C@H]1N[C@@H](C(=O)N[C@H]2CC[C@@H](O)C2)[C@H](c2cccc(Cl)c2F)[C@@]12C(=O)Nc1cc(Cl)ccc12` [MI-519-51], in series [1] (rat, IV, 5 mg/kg, plasma, parent compound), the CLz amounted to 75 mL/min/kg. Besides, the Vd in series [1] (rat, plasma, iv, 5 mg/kg, rat, IV, 5 mg/kg, plasma, parent compound, read-out: Vz) was 7.5 L/kg. Further, the “pharmacokinetic profile (in words)” value in [1] (rats, intravenous and oral routes of dosing) is listed as “inferior overall PK parameters to MI-219”. The “microsomal stability (in words)” value in series [2] and in series [5] was “inferior stability to MI-219” throughout. Also, the “% of compound remaining when incubated in rat liver microsomes with NADPH” value in [2] (0 min) came to 100.00%; in [2] (5 min) it was 12.77%; in series [2] (10 min), 2.84%; in series [2] (15 min), 0.83%; in series [2] (30 min), 0.00%; in series [2] (45 min), 0.00%. Also, the “% of compound remaining when incubated in rat liver microsomes with NADPH” value in [2] (60 min) turned out to be 0.00%. The half-life was 2.18 min in [2] (rat, liver microsomes, rat liver microsomes with NADPH) and 3.15 min in [5] (human, liver microsomes, human liver microsomes with NADPH). Moreover, the “% Tumor Growth Inhib. T/C Control 750 mm^3 D27” value with SJSA-1 xenograft tumors was 34.0%. Further, the IC50 in series [3] (setting [9]) came to 13400 ± 800 nM; in series [3] (setting [10]), 600 ± 300 nM; in [4] (setting [11]) it was 600 ± 200 nM; in series [4] (setting [12]), 8200 ± 2500 nM; in series [4] (setting [13]), 600 ± 200 nM. The “% of compound remaining when incubated in human liver microsomes with NADPH” value in series [5] (0 min) is reported as 100.00%; in [5] (5 min) it was 36.05%; in series [5] (10 min) it was 9.88%; in series [5] (15 min) it was 3.95%; in [5] (30 min), 0.00%; in [5] (45 min) it was 0.00%. For the same molecule, the “% of compound remaining when incubated in human liver microsomes with NADPH” value in series [5] (60 min) amounted to 0.00%.
As for `CC(C)(C)C[C@H]1N[C@@H](C(=O)NCC[C@H](O)CO)[C@H](c2ccc(F)c(Cl)c2)[C@@]12C(=O)Nc1cc(Cl)c(F)cc12` [MI-319, reference compound], the “Microsomal stability, % remaining” value is on record as 100.00% in series [2] (0 min); 64.80% in series [2] (5 min); 41.96% in [2] (10 min); 30.71% in series [2] (15 min); 23.11% in series [2] (30 min); 23.01% in series [2] (45 min). The “Microsomal stability, % remaining” value in series [2] (60 min) is 24.01%; in [6] (0 min), 100.00%; in series [6] (5 min), 95.37%; in series [6] (10 min), 90.75%; in series [6] (15 min), 96.26%; in series [6] (30 min), 86.12%. In addition, the “Microsomal stability, % remaining” value in series [6] (45 min) stood at 91.41%; in series [6] (60 min), 85.90%; in series [7] (0 min), 100.00%; in [7] (5 min), 108.25%; in series [7] (10 min), 69.29%; in [7] (15 min), 57.20%. Besides, the “Microsomal stability, % remaining” value is listed as 41.84% in series [7] (30 min); 29.39% in series [7] (45 min); 27.06% in series [7] (60 min); 100.00% in series [5] (0 min); 82.09% in series [5] (5 min); 60.88% in series [5] (10 min). The “Microsomal stability, % remaining” value in series [5] (15 min) stood at 43.86%; in series [5] (30 min), 24.79%; in [5] (45 min) it was 10.66%; in [5] (60 min), 16.31%. Moreover, the “microsomal stability (in words)” value in series [2], in series [7] and in [5] was “metabolized fairly rapidly” each time.
In the case of `CC(C)(C)C[C@H]1N[C@@H](C(=O)NC2CCN(S(C)(=O)=O)CC2)[C@H](c2cccc(Cl)c2F)[C@@]12C(=O)Nc1cc(Cl)ccc12` [MI-779], the IC50 is under 100 nM in [8]; 13600 nM in [3] (setting [14]); 2500 nM in series [3] (setting [15]); 1300 nM in [4] (setting [16]); 11600 nM in [4] (setting [17]); 1000 nM in series [4] (setting [18]). In the series with SJSA-1 xenograft tumors, the “% Tumor Growth Inhib. T/C Control 750 mm^3 D24” value stood at 66.1%.
Turning to `CC(C)(C)C[C@H]1N[C@@H](C(=O)NCCN2CCN(S(C)(=O)=O)CC2)[C@H](c2cccc(Cl)c2F)[C@@]12C(=O)Nc1cc(Cl)ccc12` [MI-519-49], the IC50 in series [8] is under 1000 nM; in series [3] (setting [14]), 12700 nM; in series [3] (setting [15]) it was 840 nM; in series [4] (setting [16]) it was 850 nM; in series [4] (setting [17]), 8100 nM. Also, in the series on SJSA-1 xenograft tumors, the “% Tumor Growth Inhib. T/C Control 750 mm^3 D27” value is 63.8%.
On to `CC(C)(C)C[C@H]1N[C@@H](C(N)=O)[C@H](c2cccc(Cl)c2F)[C@@]12C(=O)Nc1cc(Cl)ccc12` [MI-519-50], for which the IC50 in series [8] was under 1000 nM; in series [3] (setting [14]), 23700 nM; in series [3] (setting [15]), 900 ± 200 nM; in series [4] (setting [16]) it was 1300 ± 400 nM; in series [4] (setting [17]), 16900 ± 4500 nM; in series [4] (setting [18]), 1700 ± 1700 nM. In the series with SJSA-1 xenograft tumors, the “% Tumor Growth Inhib. T/C Control 750 mm^3 D27” value came out at 41.1%.
As to `CC(C)(C)C[C@H]1N[C@@H](C(=O)NCC(C)(C)O)[C@H](c2cccc(Cl)c2F)[C@@]12C(=O)Nc1cc(Cl)ccc12` [MI-519-62], the “% Tumor Growth Inhib. T/C Control 750 mm^3 D24” value in the series on SJSA-1 xenograft tumors stood at 59.5%. Moreover, the IC50 in series [3] (setting [9]) is over 10000 nM; in [3] (setting [10]), under 3000 nM; in [4] (setting [11]), under 3000 nM; in series [4] (setting [12]), over 10000 nM; in series [4] (setting [13]), under 3000 nM.
Consider `CCNC(=O)N1CCC(NC(=O)[C@@H]2N[C@H](CC(C)(C)C)[C@]3(C(=O)Nc4cc(Cl)ccc43)[C@H]2c2cccc(Cl)c2F)CC1` [MI-781], for which the IC50 was under 100 nM in series [8], 10100 nM in series [3] (setting [14]), 400 nM in series [3] (setting [15]) and 700 nM in [4] (setting [18]). Moreover, the “% Tumor Growth Inhib. T/C Control 750 mm^3 D24” value in the series with SJSA-1 xenograft tumors turned out to be 75.5%.
For `CC(C)(C)C[C@H]1N[C@@H](C(=O)NCC[C@H](O)CO)[C@H](c2cccc(Cl)c2F)[C@@]12C(=O)Nc1cc(Cl)ccc12` [MI-147, reference compound], the “Microsomal stability, % remaining” value turned out to be 100.00% in series [2] (0 min); 68.05% in series [2] (5 min); 31.04% in [2] (10 min); 16.85% in series [2] (15 min); 6.18% in series [2] (30 min); 4.40% in [2] (45 min). Further, the “Microsomal stability, % remaining” value in series [2] (60 min) came out at 3.43%; in series [6] (0 min), 100.00%; in series [6] (5 min) it was 94.73%; in series [6] (10 min), 90.77%; in [6] (15 min) it was 93.43%; in series [6] (30 min), 94.14%. In addition, the “Microsomal stability, % remaining” value is listed as 91.07% in [6] (45 min); 85.38% in [6] (60 min); 100.00% in series [7] (0 min); 77.84% in series [7] (5 min); 47.98% in series [7] (10 min); 44.83% in [7] (15 min). In addition, the “Microsomal stability, % remaining” value in series [7] (30 min) worked out at 21.52%; in [7] (45 min), 17.08%; in series [7] (60 min), 12.15%; in [5] (0 min), 100.00%; in series [5] (5 min) it was 78.23%; in series [5] (10 min), 58.01%. For the same molecule, the “Microsomal stability, % remaining” value amounted to 41.59% in series [5] (15 min), 19.67% in series [5] (30 min), 10.81% in [5] (45 min) and 7.18% in [5] (60 min). For the same molecule, the “microsomal stability (in words)” value in series [2], in series [7] and in series [5] was “metabolized fairly rapidly” each time.
